Experimental data reported in ChEMBL document CHEMBL1926678, “Synthesis and bio-evaluation of human macrophage migration inhibitory factor inhibitor to develop anti-inflammatory agent” (Bioorg Med Chem, 2011).
Activity calls are given as the source filed them. The calls are words filed in the database; no cut-off is given here.

How the values were obtained:
[1] = biological target: T1, Macrophage migration inhibitory factor (Homo sapiens, UniProt P14174); assay: Inhibition of human cloned MIF tautomerase activity expressed in Escherichia coli assessed as conversion of L-dopachrome methyl ester to indolecarboxylic acid methyl ester measured for 20 secs
T1 sequence (P14174 whole entry): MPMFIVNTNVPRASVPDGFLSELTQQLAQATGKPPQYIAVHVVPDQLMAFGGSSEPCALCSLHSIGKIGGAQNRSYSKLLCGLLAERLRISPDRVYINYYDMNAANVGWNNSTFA

[2] = biological target: Macrophage migration inhibitory factor (Mus musculus) (UniProt P34884); assay: Inhibition of MIF-induced NF-kappaB nuclear translocation in mouse RAW264.7 cells assessed as inhibition of iNOS expression at 50 uM pretreated for 30 mins measured after 24 hrs by fluorescence spectrophotometry; format: cell-based
Chain of Macrophage migration inhibitory factor (Mus musculus) (P34884 2-115 limits assumed): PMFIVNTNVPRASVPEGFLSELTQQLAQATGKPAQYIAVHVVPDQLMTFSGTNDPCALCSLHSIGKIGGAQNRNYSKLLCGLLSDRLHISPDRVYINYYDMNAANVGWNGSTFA

[3] = biological target: Macrophage migration inhibitory factor (Mus musculus) (UniProt P34884); assay: Inhibition of MIF-induced nitric oxide production in mouse RAW264.7 cells at 50 uM pretreatment by Griess assay; format: cell-based
RAW264.7 = assay: Cytotoxicity against mouse RAW264.7 cells assessed as cell viability at 200 uM after 24 hrs by MTT assay; format: cell-based; settings: raw264.7, 24 h
[4] = Cytotoxicity against rat gastric mucosal cells assessed as cell viability at 200 uM after 24 hrs by MTT assay; format: cell-based, Gastric mucosa
[5] = biological target: Macrophage migration inhibitory factor (Mus musculus) (UniProt P34884); assay: Inhibition of MIF-induced NF-kappaB nuclear translocation in mouse RAW264.7 cells assessed as reduction in complex formation at 40 to 80 uM pretreated for 30 mins measured after 4 hrs by electrophoretic mobility shift assay; format: cell-based
[6] = biological target: Macrophage migration inhibitory factor (Mus musculus) (UniProt P34884); assay: Inhibition of MIF-induced NF-kappaB nuclear translocation in mouse RAW264.7 cells assessed as reduction in complex formation pretreated for 30 mins measured after 4 hrs by electrophoretic mobility shift assay; format: cell-based
[7] = biological target: Macrophage migration inhibitory factor (Mus musculus) (UniProt P34884); assay: Inhibition of MIF-induced NF-kappaB nuclear translocation in mouse RAW264.7 cells at 100 uM pretreated for 30 mins before […] stimulation measured after 2 hrs by autoradiography; format: cell-based

| SMILES | IC50 [1] [µM] | further results |
| --- | --- | --- |
| COC(=O)CC1CC(c2ccc(OC(=O)CC3CC(c4ccc(OC)cc4)=NO3)cc2)=NO1 (configuration not stated) | 37.2 |  |
| COC(=O)CC1CC(c2ccc(OC)cc2)=NO1 (configuration not stated) | 19.7 |  |
| COc1ccc(C2=NOC(C(C)=O)C2)cc1OC (configuration not stated) | 35.4 |  |
| COC(=O)CC1CC(c2ccc(O)cc2)=NO1 (racemic) |  | inhibition [7]: 70% |
| COc1ccc(C2=NOC(CC(=O)Oc3cc(C)ccc3C(C)C)C2)cc1 (configuration not stated) | 55.3 |  |
| COC(=O)C1CC(c2ccc(OC)c(OC)c2)=NO1 (configuration not stated) | 25.2 |  |

The next lines start with results.

| IC50 [1] [µM] | SMILES | further results |
| --- | --- | --- |
| 15.2 | O=C(O)CC1CC(c2ccc(O)cc2)=NO1 (configuration not stated) |  |
| 7.3 | COc1cc(C2=NOC(COc3ccc(C=O)cc3)C2)ccc1O (configuration not stated) | inhibition [2]: Active; inhibition [3]: Active; Activity (RAW264.7): Non-toxic; Activity [4]: Non-toxic; inhibition [5]: 100%; inhibition [6]: Dose-dependent effect |
| 16.7 | COc1ccc(C2=NOC(CC(=O)O)C2)cc1 (configuration not stated) |  |
| 10.2 | COc1cc(C2=NOC(CC(=O)O)C2)ccc1O (configuration not stated) |  |
| 11.2 | CCCCOC(=O)CC1CC(c2ccc(OC)cc2)=NO1 (configuration not stated) |  |
